Like-named read-outs stand apart in the source and are kept apart here. Where no end group is shown, it is not given here.

The conditions of data set [1]: clinical dose, human volunteers; cited from earlier work.
For data set [2] the following is noted: in 4 hours; cited from earlier work.
A short description of data set [3]: Single-dose in vivo toxicity, LD50 determination. Also noted: species or system mouse. The conditions noted are these: BALB/c, mouse, in vivo, ip.
The test system of data set [4] is BALB/c mice. As to the kind of experiment: Multidose cumulative toxicity, mouse survival. Format: in vivo. Particulars: repeated maximum sublethal doses.
The test system of data set [5] is panel of 30 type cultures. As to the kind of experiment: I_score ranking from the MICs of 30 type cultures. Particulars: number of cultures inhibited with the lowest MIC among the five peptides.
Data set [6] has as its system BALB/c mice. As to the kind of experiment: Single-dose in vivo toxicity, LD50 determination. Also noted: species or system mouse.
Data set [7] deals with BALB/c mice. As to the kind of experiment: Kidney and liver histopathology after multidose treatment. Particulars: after 11 maximum sublethal doses. It is filed as in vivo, mouse.
For data set [8], the system named is A. baumannii (P1270). Briefly: Radiolabeled phosphate leakage radioassay. Particulars: in 60 min; Ω76 32 mg/liter, colistin 5 mg/liter. It is filed as cell-based.
For data set [9] the following is noted: cited from earlier work.
For data set [10] the following is noted: clinical dose, mouse serum; cited from earlier work.
Data set [11] deals with A. baumannii (P1270). As to the kind of experiment: Time-kill curves in ex vivo whole human blood. The conditions noted are these: in 60 min; Ω76 32 mg/liter, colistin 5 mg/liter.
For data set [12] the following is noted: cited from earlier work. This is another data set of the same source.
Setting [13] is: young patient cohort, Walter Reed Army Medical Center.

As to `C[C@@H](O)[C@H]1C(=O)N2C(C(=O)O)=C(S[C@@H]3CN[C@H](C(=O)N(C)C)C3)[C@H](C)[C@H]12` [meropenem], in data set [1], the “time above MIC concentrations in serum” value is 5 h. For the same molecule, the CFU reduction in [2] was 100 fold.

One may read the LD50 as the dose expected to kill half of the subjects tested. Low readings indicate greater toxicity, high ones lower toxicity. On to “H-GIGKFLKKAKKFGKAFVKILKK-NH2 [Pexiganan]”, for which, in data set [3], the LD50 at 5 days stood at 60 mg/kg. The molecule further had a mortality in mice in the data set on BALB/c mice [4] of 100%.

Take IKALGKKLRKGKKKIGKKVK [Ω93]: the I_score in data set [5] was determined as 1.

For the molecule colistin, in the data set with BALB/c mice [6] (intraperitoneal, monitored 5 days, linear interpolation), the “LD50 (median lethal dose)” value worked out at 30 mg/kg. This molecule also had a maximum sublethal dose in the data set on BALB/c mice [6] (intraperitoneal, single dose) of 16 mg/kg. Further, the “mortality (mice)” value in the data set on BALB/c mice [6] (single dose of 32 mg/kg) is on record as 3 of 5. Further, the mortality in mice in the data set on BALB/c mice [4] was determined as 50%. The kidney histology result in the data set on BALB/c mice [7] is “extensive renal damage”. Further, in the data set on BALB/c mice [7], the liver histology result was “displaying no damage”. In the data set with A. baumannii (P1270) [8], this molecule showed an intracellular phosphate lost of 25%. Also, the acute kidney injury in data set [9] (Korean elderly patient cohort, treated for ≥72 hours) was 54.6%; in data set [9] (Turkish elderly patient cohort), 46.1%; in [9] (setting [13]) it was 45%. For the same molecule, the “cessation of treatment due to nephrotoxicity” value in data set [9] (setting [13]) is given as 21%. Moreover, the “time above MIC concentrations in serum” value in [10] is 100 min. Also, the CFU reduction in the data set with A. baumannii (P1270) [11] came to 32 fold.

Regarding gramicidin S, in [12], the hemolytic properties entry is listed as “display hemolytic properties”.

For the molecule lactoferrampin, in [12], the hemolytic properties entry is reported as “display hemolytic properties”.

With melittin, the hemolytic properties entry in [12] is given as “display hemolytic properties”.
